{"source": "patent US20100120700A1", "about": "“METHODS AND COMPOSITIONS FOR TREATING CERVICAL CANCER” (priority 2000, published 2010)", "experiment_in_all_cases": "G assay PDZ-PL binding", "design_in_all_cases": "species or system human", "settings_in_all_cases": "peptide 10 uM, protein 5", "key": {"DLG-6 #333.1 domain 1": {"tested_on": "DLG-6 #333.1 domain 1", "procedure": "(§1) (1) A PDZ-domain polypeptide is bound to a surface, e.g. a protein binding surface. In a preferred embodiment, a GST/PDZ fusion protein containing one or more PDZ domains is bound to a polystyrene 96-well plate. […] In one embodiment, the GST/PDZ fusion protein is bound via an anti-GST antibody that is coated onto the 96-well plate. Adequate binding to the plate can be achieved when: • a. 100 uL per well of 5 ug/mL goat anti-GST polyclonal antibody (Pierce) in PBS is added to a polystyrene 96-well plate (e.g., Num Polysorb) at 4° C. for 12 hours. • b. The plate is blocked by addition of 200 uL per well of PBS/BSA for 2 hours at 4° C. • c. The plate is washed 3 times with PBS. • d. 50 uL per well of 5 ug/mL GST/PDZ fusion protein) or, as a negative control, GST polypeptide alone (i.e. not a fusion protein) in PBS/BSA is added to the plate for 2 hours at 4° C. • e. The plate is again washed 3 times with PBS. […]\n(§2) (3) The binding of the biotinylated peptide to the GST/PDZ fusion protein surface can be detected using a variety of methods and detectors known to one of skill in the art. In one embodiment, 100 uL per well of 0.5 ug/mL streptavidin-horse radish peroxidase (HRP) conjugate dissolved in BSA/PBS is added and allowed to react for 20 minutes at 4° C. The plate is then washed 5 times with 50 mM Tris pH 8.0 containing 0.2% Tween 20, and developed by addition of 100 uL per well of HRP-substrate solution (TMB, Dako) for 20 minutes at room temperature (RT). The reaction of the HRP and its substrate is terminated by addition of 100 uL per well of 1M sulfuric acid, and the absorbance of each well of the plate is read at 450 nm.\n(§3) (4) Specific binding of a PL peptide and a PDZ domain polypeptide is determined by comparing the signal from the well(s) in which the PL peptide and PDZ domain polypeptide are combined, with the background signal(s). The background signal is the signal found in the negative control(s). Typically a specific or selective reaction will be at least twice background signal, more typically more than 5 times background, and most typically 10 or more times the background signal. In addition, a statistically significant reaction will involve multiple measurements of the reaction with the signal and the background differing by at least two standard errors, more typically four standard errors, and most typically six or more standard errors. Correspondingly, a statistical test (e.g. a T-test) comparing repeated measurements of the signal with-repeated measurements of the background will result in a p-value<0.05, more typically a p-value<0.01, and most typically a p-value<0.001 or less. As noted, in an embodiment of the “G” assay, the signal from binding of a given PL peptide to immobilized (surface bound) GST polypeptide alone is one suitable negative control (sometimes referred to as “B 1”). Because all measurement are done in multiples (i.e. at least duplicate) the arithmetic mean (or, equivalently, average.) of several measurements is used in determining the binding, and the standard error of the mean is used in determining the probable error in the measurement of the binding. The standard error of the mean of N measurements equals the square root of the following: the sum of the squares of the difference between each measurement and the mean, divided by the product of (N) and (N−1). Thus, in one embodiment, specific binding of the PDZ protein to the platebound peptide is determined by comparing the mean signal (“mean S”) and standard error of the signal (“SE”) for a particular PL-PDZ combination with the mean B1.\n(§4) For convenience, the assay conditions described in this section are referred to as the “G’ assay” and the “G” assay,” with the specific conditions described in the preceding section on G assays being referred to as the “G° assay.” The “G′ assay” is identical to the “G° assay” except at step (2) the peptide concentration is 10 uM instead of 20 uM. […]"}, "FLJ00011 domain 1": {"tested_on": "FLJ00011 domain 1", "sequence (as listed by the source)": "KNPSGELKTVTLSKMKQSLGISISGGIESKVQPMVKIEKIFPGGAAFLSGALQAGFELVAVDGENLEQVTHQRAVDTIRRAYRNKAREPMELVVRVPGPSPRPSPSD", "procedure": "as §1, §2, §3, §4"}, "NSP #268.2 domain 1": {"tested_on": "NSP #268.2 domain 1", "procedure": "as §1, §2, §3, §4"}}, "note": "Several values for one entry are separate records, joined by “and”; a condition that tells them apart may be missing. Identical values can stand only once.", "data": [{"substance": "20 mer peptide corresponding to the C-terminus of HPV16 E6 (PDZ ligand), biotinylated in binding assays; ends SSRTRRETQL (SEQ ID NO: 13) [HPV E6 #16]", "values": [{"measurement": "Ave OD", "setting": "DLG-6 #333.1 domain 1; A450 nm", "value": 0.3495}, {"measurement": "OD S/N", "setting": "DLG-6 #333.1 domain 1; vs GST only well", "value": 2.04}, {"measurement": "Ave OD", "setting": "FLJ00011 domain 1; A450 nm", "value": "0.423 and 0.8185"}, {"measurement": "OD S/N", "setting": "FLJ00011 domain 1; vs GST only well", "value": "2.90 and 3.97"}, {"measurement": "Ave OD", "setting": "NSP #268.2 domain 1; A450 nm", "value": 0.724}, {"measurement": "OD S/N", "setting": "NSP #268.2 domain 1; vs GST only well", "value": 2.58}]}]}
